From US11033535B2, “Oxadiazoles and thiadiazoles as TGF-β inhibitors” (Southern Research Institute, priority 2017, dated 2021)
pIC50: −log10 of the molar value. Counter-ions that a name gives are not always drawn.

What follows are molecules tested against (Homo sapiens, UniProt P07996) (assay: Secondary Assay, inhibitory activity of thiadiazole and oxadiazole analogs as TGF-beta inhibitors). Conditions: Table I.
Assay type: biochemical
Method: A summary of the inhibitory activity of representative thiadiazole analogs (Tables i and ii) and oxadiazole analogs (Table ii) is shown below.
(§1) For initial screening, an ELISA-based screening assay was used in which purified human platelet TSP-1 was incubated with compounds and then incubated with recombinant latent TGF-β1 (purchased from R&D Systems). Activity is measured in a commercially available ELISA which detects only active TGF-β (R &D Systems). Activity in the presence of compounds is compared to activity in TSP-1+latent TGF-β samples without inhibitory compounds (Lu et al. (2016) Am J Pathol 186:678-690).
To specifically assess activity of compounds in liver cell specific assays, two different assays were used. In the first, human hepatic stellate cells were incubated overnight in low serum media to condition the media with secreted latent TGF-β. Purified TSP1 either pre-incubated with compounds or not will be added to cultures and then conditioned media harvested to assess TGF-β biological activity using the R&D Systems ELISA as above. Hepatic stellate cells will be purchased from commercial sources. Although hepatic stellate cells are the primary drivers of liver fibrosis, conditions which drive liver fibrosis can induce hepatocyte TSP-1 expression which can then have paracrine effects on controlling TGF-β activation in hepatic stellate cells. Furthermore, TGF-β can negatively impact hepatocyte regeneration following injury. Therefore, the ability of compounds to block TSP-1 activation of latent TGF-β will also be assessed in cultured primary human hepatocytes following the protocol described for the hepatic stellate cells. Similar approaches have successfully been used to screen compounds which inhibit human myeloma cell derived latent TGF-β activation by TSP-1 (Lu et al. (2016) Am J Pathol 186:678-690).
Target sequence in this assay (P07996 whole entry): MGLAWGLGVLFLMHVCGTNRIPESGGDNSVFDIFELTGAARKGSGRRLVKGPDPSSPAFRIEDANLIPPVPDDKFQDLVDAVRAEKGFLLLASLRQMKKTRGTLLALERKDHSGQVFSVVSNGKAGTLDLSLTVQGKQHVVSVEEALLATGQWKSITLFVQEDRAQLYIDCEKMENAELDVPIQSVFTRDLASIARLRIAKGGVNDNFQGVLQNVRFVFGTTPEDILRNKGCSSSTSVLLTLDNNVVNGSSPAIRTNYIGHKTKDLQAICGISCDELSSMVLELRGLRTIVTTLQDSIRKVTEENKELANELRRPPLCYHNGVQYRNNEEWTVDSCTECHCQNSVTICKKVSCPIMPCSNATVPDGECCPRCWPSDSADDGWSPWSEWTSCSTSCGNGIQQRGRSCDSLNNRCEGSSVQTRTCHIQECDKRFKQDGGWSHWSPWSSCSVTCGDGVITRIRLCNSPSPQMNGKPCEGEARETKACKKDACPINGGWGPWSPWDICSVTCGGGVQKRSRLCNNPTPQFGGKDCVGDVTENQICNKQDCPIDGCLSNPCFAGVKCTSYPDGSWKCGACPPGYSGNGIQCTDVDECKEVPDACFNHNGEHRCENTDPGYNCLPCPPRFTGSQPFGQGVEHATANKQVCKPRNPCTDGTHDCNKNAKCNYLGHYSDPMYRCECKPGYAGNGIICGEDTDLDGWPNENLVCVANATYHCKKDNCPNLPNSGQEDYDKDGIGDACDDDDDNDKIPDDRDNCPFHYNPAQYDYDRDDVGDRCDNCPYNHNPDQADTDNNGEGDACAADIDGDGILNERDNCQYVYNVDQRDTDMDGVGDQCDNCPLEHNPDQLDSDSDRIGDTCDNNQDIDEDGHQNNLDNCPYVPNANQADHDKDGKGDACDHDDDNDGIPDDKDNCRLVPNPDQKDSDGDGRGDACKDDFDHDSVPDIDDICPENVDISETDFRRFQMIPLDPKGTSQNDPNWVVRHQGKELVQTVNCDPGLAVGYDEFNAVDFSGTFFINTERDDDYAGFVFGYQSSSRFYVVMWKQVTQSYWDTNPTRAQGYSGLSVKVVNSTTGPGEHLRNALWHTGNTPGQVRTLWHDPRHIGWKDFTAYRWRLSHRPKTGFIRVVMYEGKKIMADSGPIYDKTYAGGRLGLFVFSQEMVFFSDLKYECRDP

Row | pIC50 | SMILES
1 | 8.10 | CC(=O)NC(Cc1ccc(CN)cc1)c1nnc(-c2cc(C)cc(OC(F)(F)F)c2)s1 (centres unmarked) [Compound 42470]
2 | 8.22 | COc1cc(-c2nnc(C(Cc3ccc(CN)cc3)NC(C)=O)s2)cc(C(F)(F)F)c1 (centres unmarked) [Compound 42330, N-(2-(4-(aminomethyl)phenyl)-1-(5-(3-methoxy-5-(trifluoromethyl)phenyl)-1,3,4-thiadiazol-2-yl)ethyl)acetamide]
3 | 8.10 | NCc1cccc(CC(NC(=O)C2CC2)c2nnc(-c3cccc(OC(F)(F)F)c3)s2)c1 (centres unmarked) [Compound 42468, N-(2-(3-(aminomethyl)phenyl)-1-(5-(3-(trifluoromethoxy)phenyl)-1,3,4-thiadiazol-2-yl)ethyl)cyclopropanecarboxamide]
4 | 7.48 | CC(=O)NC(Cc1ccc(CN)cc1)c1nnc(-c2ccncc2)s1 (centres unmarked) [Compound 39245, N-(2-(4-(aminomethyl)phenyl)-1-(5-(pyridin-4-yl)-1,3,4-thiadiazol-2-yl)ethyl)acetamide]
5 | 7.41 | CC(=O)NC(Cc1ccc(CN)cc1)c1nnc(-c2cc(C(F)(F)F)cc(C(F)(F)F)c2)s1 (centres unmarked) [Compound 40653, N-(2-(4-(aminomethyl)phenyl)-1-(5-(3,5-bis(trifluoromethyl)phenyl)-1,3,4-thiadiazol-2-yl)ethyl)acetamide]
6 | 7.31 | CC(=O)NC(Cc1ccc(CN)cc1)c1nnc(-c2ccc(F)cc2)s1 (centres unmarked) [Compound 40051, N-(2-(4-(aminomethyl)phenyl)-1-(5-(4-fluorophenyl)-1,3,4-thiadiazol-2-yl)ethyl)acetamide]
7 | 7.21 | CC(=O)NC(Cc1ccc(CN)cc1)c1nnc(-c2cccc(OC(F)(F)F)c2)s1 (racemic) [Compound 41791]
8 | 6.74 | COc1cccc(-c2nnc(C(Cc3ccc(CN)cc3)NC(C)=O)s2)c1 (centres unmarked) [Compound 41149, N-(2-(4-(aminomethyl)phenyl)-1-(5-(3-methoxyphenyl)-1,3,4-thiadiazol-2-yl)ethyl)acetamide hydrochloride]
9 | 8.30 | NCc1cccc(CC(NC(=O)C2CCCCC2)c2nnc(-c3cccc(OC(F)(F)F)c3)s2)c1 (centres unmarked) [Compound 42461, N-(2-(3-(aminomethyl)phenyl)-1-(5-(3-(trifluoromethoxy)phenyl)-1,3,4-thiadiazol-2-yl)ethyl)cyclohexanecarboxamide]
10 | 7.82 | CC(=O)NC(Cc1ccc(N)cc1)c1nnc(-c2cccc(OC(F)(F)F)c2)s1 (centres unmarked) [Compound 39999, N-(2-(4-aminophenyl)-1-(5-(3-(trifluoromethoxy)phenyl)-1,3,4-thiadiazol-2-yl)ethyl)acetamide]
11 | 8.05 | CC(=O)NC(Cc1ccc(CN)cc1)c1nnc(-c2cccc(C(F)(F)F)c2)s1 (centres unmarked) [Compound 41152, N-(2-(4-(aminomethyl)phenyl)-1-(5-(3-(trifluoromethyl)phenyl)-1,3,4-thiadiazol-2-yl)ethyl)acetamide hydrochloride]
12 | 7.52 | CC(=O)N(C)C(Cc1ccc(CN)cc1)c1nnc(-c2cccc(OC(F)(F)F)c2)s1 (centres unmarked) [Compound 42335, N-(2-(4-(aminomethyl)phenyl)-1-(5-(3-(trifluoromethoxy)phenyl)-1,3,4-thiadiazol-2-yl)ethyl)-N-methylacetamide Hydrochloride]
13 | 7.59 | CC(=O)N[C@@H](Cc1ccc(CN)cc1)c1nnc(-c2cccc(OC(F)(F)F)c2)s1 (single isomer, unassigned) [Compound 41891]
14 | 7.55 | CC(=O)NC(Cc1ccc(CN)cc1)c1nnc(-c2cccc(OC(F)(F)F)c2)s1 (centres unmarked) [Compound 40000, N-(2-(4-(aminomethyl)phenyl)-1-(5-(3-(trifluoromethoxy)phenyl)-1,3,4-thiadiazol-2-yl)ethyl)acetamide]
15 | 8.10 | COc1cc(C)cc(-c2nnc(C(Cc3ccc(CN)cc3)NC(C)=O)s2)c1 (centres unmarked) [Compound 42473]
16 | 7.57 | CC(=O)N[C@H](Cc1ccc(CN)cc1)c1nnc(-c2cccc(OC(F)(F)F)c2)s1 (single isomer, unassigned) [Compound 41892]

Same assay, conditions: Table II

Row | pIC50 | SMILES
17 | 7.89 | CC(=O)NC(CCCCN)c1nnc(C2CCCCC2)s1 (centres unmarked) [Compound 39139, N-(5-Amino-1-(5-cyclohexyl-1,3,4-thiadiazol-2-yl)pentyl)acetamide]
18 | 6.49 | CC(=O)NC(CCCCN)c1nnc(-c2ccc(F)cc2)s1 (centres unmarked) [Compound 39261, N-(5-Amino-1-(5-(4-fluorophenyl)-1,3,4-thiadiazol-2-yl)pentyl)acetamide]

Same assay, conditions: Table II, cells that print μM

Row | IC50 | SMILES
19 | > 1 µM | CC(=O)NC(CCCCN)c1nnc(-c2ccncc2)o1 (centres unmarked) [Compound 40074, N-(5-Amino-1-(5-(pyridin-4-yl)-1,3,4-oxadiazol-2-yl)pentyl)acetamide]
20 | > 1 µM | CC(=O)NC(CCCCN)c1nnc(-c2ccc(F)cc2F)s1 (centres unmarked) [Compound 39425, N-(5-Amino-1-(5-(2,4-difluorophenyl)-1,3,4-thiadiazol-2-yl)pentyl)acetamide]

The molecules below were run against (Homo sapiens, UniProt P07996) (assay: ELISA based assays of TSP1 activation of latent TGF-β (purified protein components or TSP1-treated cell conditioned media)). Conditions: at 1 pm.
Assay type: biochemical
Design: purchased R&D Systems
Method: Compound 35 was evaluated for its ability to inhibit TGF-β in both ELISA based assays with purified protein components (latent TGFβ and TSP1 or in TSP1-treated cell conditioned media).
Target sequence in this assay (P07996 19-1170): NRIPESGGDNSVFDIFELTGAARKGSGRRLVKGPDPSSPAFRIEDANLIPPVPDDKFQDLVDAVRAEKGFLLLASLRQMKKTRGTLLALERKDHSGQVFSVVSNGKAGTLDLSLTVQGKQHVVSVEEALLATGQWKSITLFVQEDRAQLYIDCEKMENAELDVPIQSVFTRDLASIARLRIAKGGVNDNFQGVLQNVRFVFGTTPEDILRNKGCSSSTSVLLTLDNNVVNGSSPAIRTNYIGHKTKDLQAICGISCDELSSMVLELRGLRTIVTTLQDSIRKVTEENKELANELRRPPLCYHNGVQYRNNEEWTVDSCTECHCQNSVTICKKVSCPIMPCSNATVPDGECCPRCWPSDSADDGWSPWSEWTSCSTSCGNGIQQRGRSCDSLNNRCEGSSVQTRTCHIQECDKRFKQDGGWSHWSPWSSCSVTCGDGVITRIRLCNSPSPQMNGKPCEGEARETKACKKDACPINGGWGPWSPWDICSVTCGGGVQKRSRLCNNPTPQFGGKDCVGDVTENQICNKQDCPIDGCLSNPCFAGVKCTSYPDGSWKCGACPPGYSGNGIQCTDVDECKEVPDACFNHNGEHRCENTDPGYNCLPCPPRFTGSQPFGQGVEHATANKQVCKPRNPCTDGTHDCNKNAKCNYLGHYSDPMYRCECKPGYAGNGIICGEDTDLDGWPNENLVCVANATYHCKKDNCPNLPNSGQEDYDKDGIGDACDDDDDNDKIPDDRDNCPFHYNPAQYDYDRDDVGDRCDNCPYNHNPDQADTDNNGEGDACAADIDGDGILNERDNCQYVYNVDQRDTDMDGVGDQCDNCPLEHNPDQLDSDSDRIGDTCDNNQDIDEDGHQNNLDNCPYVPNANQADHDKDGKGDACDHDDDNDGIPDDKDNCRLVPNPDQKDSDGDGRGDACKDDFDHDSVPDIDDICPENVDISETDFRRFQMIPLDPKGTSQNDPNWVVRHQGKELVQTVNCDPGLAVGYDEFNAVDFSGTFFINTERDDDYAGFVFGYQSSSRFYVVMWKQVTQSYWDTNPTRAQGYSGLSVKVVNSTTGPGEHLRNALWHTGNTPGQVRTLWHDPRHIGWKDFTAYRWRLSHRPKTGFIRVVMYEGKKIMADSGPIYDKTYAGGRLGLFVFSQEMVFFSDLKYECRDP
as §1

Row | inhibition of TGF-β | SMILES
21 | 15% | CC(=O)N[C@@H](CCCCN)c1nnc(-c2ccccc2)s1 [Compound 35, (S)—N-(5-amino-1-(5-phenyl-1,3,4-thiadiazol-2-yl)pentyl)acetamide]

Same assay, conditions: at 50 pm

Row | inhibition of TGF-β | SMILES
22 | 67% | CC(=O)N[C@@H](CCCCN)c1nnc(-c2ccccc2)s1 [Compound 35, (S)—N-(5-amino-1-(5-phenyl-1,3,4-thiadiazol-2-yl)pentyl)acetamide]

Same assay, conditions: at 100 pm

Row | inhibition of TGF-β | SMILES
23 | 67% | CC(=O)N[C@@H](CCCCN)c1nnc(-c2ccccc2)s1 [Compound 35, (S)—N-(5-amino-1-(5-phenyl-1,3,4-thiadiazol-2-yl)pentyl)acetamide]
